Laboratory results published in patent publication US20230365590A1, “BIPHENYL COMPOUND AS IMMUNOMODULATOR, PREPARATION METHOD THEREFOR AND APPLICATION THEREOF” (SHENZHEN CHIPSCREEN BIOSCIENCES CO., LTD., priority 2020, published 2023).

Tests used:
[1] = Single-dosing pharmacokinetics test; type: in vivo, B-hPD-1/hPD-L1 female mice; details: female, B-hPD-1/hPD-L1 (humanized), mouse, po; humanized mice, single dose of 100 mg/kg by gavage, plasma
Description: 24 6-week old B-hPD-1/hPD-L1 female mice (purchased from Biocytogen (Jiangsu) Gene Biotechnology Co., Ltd.) were taken and the test compound was dissolved in a solvent containing 5% DMSO, 60% PEG400 and 35% purified water. The compound I-6 and three control molecules, Example 17, Compound 14 (INCB086550) and Example 180 were dosed. The compound was administered by gavage in a single dose of 100 mg/kg and blood was collected through fundus vein plexus after administration. The time points for blood collection were 15 min, 30 min, 1 h, 2 h, 4 h, 8 h, 24 h, 32 h and 48 h. About 0.1 mL of blood was collected and centrifuged in a centrifuge tube (heparin sodium anticoagulation) at 5000 rpm for 5 min to separate plasma, and then frozen at −20° C. for testing. After the plasma sample was treated, the concentration of the compound in the plasma was determined by liquid chromatography-mass spectrometry (LC-MS/MS). The pharmacokinetic parameters were calculated using Phoenix WinNonlin 7.0 based on the average blood concentration data at different time points.

[2] = Repeated-dosing pharmacokinetics test; type: in vivo, B-hPD-1/hPD-L1 humanized female mice; details: female, B-hPD-1/hPD-L1 (humanized), mouse, po; humanized mice, 50 mg/kg by gavage once a day for 12 days, plasma on day 12
Description: 24 6-week old B-hPD-1/hPD-L1 humanized female mice (purchased from Biocytogen (Jiangsu) Gene Biotechnology Co., Ltd.) were taken and the test compound was dissolved in a solvent containing 5% DMSO, 60% PEG400 and 35% purified water. The compound I-6 and three control molecules, Example 17, Compound 14 (INCB086550) and the aforementioned Example 180 were dosed. The compound was administered by gavage once a day in a dose of 50 mg/kg for 12 consecutive days, and blood was alternately collected through fundus vein plexus on day 12 of administration. The time points for blood collection were 15 min, 30 min, 1 h, 2 h, 4 h, 8 h, 24 h, 32 h and 48 h. About 0.1 mL of blood was collected and centrifuged in a centrifuge tube (heparin sodium for anticoagulation) at 5000 rpm for 5 min to separate plasma, and then frozen at −20° C. for testing. The concentration of the compound in the plasma was determined by liquid chromatography-mass spectrometry (LC-MS/MS). The pharmacokinetic parameters were calculated using Phoenix WinNonlin 7.0 based on the average blood concentration data at different time points.

[3] = clinical studies; cited from earlier work

Compound | AUC(0-t) [1] | MRT [1] | half-life [1] | AUC(0-t) [2] | MRT [2] | half-life [2] | half time T1/2 [3]
Cc1c(Nc2nccc3cc(CN4CC[C@@H](O)C4)cnc23)cccc1-c1cccc(-c2nc3cc(CN4CC[C@@H](C(=O)O)C4)cc(C#N)c3o2)c1C [Compound 14 (INCB086550)] | 19600 ng·h/mL | 5.9 h | 3.9 h | 10600 ng·h/mL | 5 h | 3.7 h | –
Cn1c(C(=O)Nc2cccc(-c3cccc(NC(=O)c4nc5c(n4C)CCN(CCC46CCC(C(=O)O)(CC4)C6)C5)c3Cl)c2Cl)nc2c1CCN(CCC13CCC(C(=O)O)(CC1)C3)C2 [Example 17] | 118000 ng·h/mL | 4.2 h | 3.8 h | 58800 ng·h/mL | 4.6 h | 3.9 h | –
atezolizumab: PD-1/PD-L1 antibody drug | – | – | – | – | – | – | 648 h
nivolumab: PD-1/PD-L1 antibody drug | – | – | – | – | – | – | 605 h
pembrolizumab: PD-1/PD-L1 antibody drug | – | – | – | – | – | – | 600 h
